In patent publication US20240140941A1, “DERIVATIVE OF 2,5-DIKETOPIPERAZINE COMPOUND, AND PREPARATION METHOD THEREFOR, PHARMACEUTICAL COMPOSITION THEREOF AND USE THEREOF” (DALIAN WZ PROBIOTICS AD HEALTH CO., LTD, priority 2020, published 2024) one finds IC50 and melting point data, which are given here for 16 compounds.

Counter-ions that a name gives are not always drawn. Like-named read-outs stand apart in the source and are kept apart here.

The subject of data set [1] is NCI-H460. Nature of the data set: Inhibition test on cell proliferation (MTT), NCI-H460. Format: cell-based, human. In a few lines: (§1)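 Cells plated at 2000-6000 per well, allowed to adhere for 24 h, then exposed to serially diluted compound for 72 h at 37 °C, 5% CO2. Viability read by MTT reduction, with formazan dissolved in DMSO and absorbance taken at 490 nm. Inhibition rate calculated relative to untreated and zero-setting wells.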

In data set [2] the test system is BxPC-3. Put plainly: Inhibition test on cell proliferation (MTT), BxPC-3. To be noted: read-out: IC50 (nM) BxPC-3. Format: cell-based, human. A digest of the protocol: as §1
In data set [3] the test system is HCC-LM3. Put plainly: Inhibition test on cell proliferation (MTT), HCC-LM3. Format: cell-based, human. Conditions: read-out: IC50 (nM) HCC-LM3. The protocol: (§2) Tumor cells (NCI-H460, BxPC-3, HT-29, HCC-LM3) in the logarithmic growth phase were digested, centrifuged, and the supernatants were removed. Cells were resuspended by adding fresh culture medium, and counted using a cell counting plate. 100 μL of culture medium (containing cells) was added to a 96-well plate according to the standard of 2000 to 6000 cells per well and incubated in an incubator (37° C., 5% CO2) for 24 hours. After the cells were completely adhered to the wall, the test sample and Plinabulin were diluted to different concentrations using fresh culture medium, and 4 wells were set for each concentration. After 72 hours of drug treatment, the culture medium was removed, and 20 μL of MTT at a concentration of 5 mg/mL was added to each well. After 3-4 hours in the incubator, the MTT was discarded, and 100 μL of DMSO was added to each well, and placed in a 96-well plate shaker to completely dissolve the purple formazan. Subsequently, the absorbance (OD value) was detected at a wavelength of 490 nm using a microplate reader. The experiment also required setting up zero-setting wells (blank culture medium, MTT, DMSO). Cell inhibition rate=1−(OD value of drug-dosed group−OD value of zero-setting group)/(OD value of blank group−OD value of zero-setting group)×100%.

Data set [4] concerns HT-29. Nature of the data set: Inhibition test on cell proliferation (MTT), HT-29. Conditions: 72 hours of drug treatment. Format: cell-based, human. Here is the method:
as §2

Where [5] appears, read: Homo sapiens, NCI-H460, 72 h, 72 hours of drug treatment, MTT, read-out: IC50 (nM) NCI-H460.
The mark [6] stands for this setting: Homo sapiens, BXPC-3, 72 h, 72 hours of drug treatment, MTT.
Setting [7] is: Homo sapiens, HCCLM3, 72 h, 72 hours of drug treatment, MTT.
Where [8] appears, read: 72 hours of drug treatment, MTT, hydrochloride.
Where [9] appears, read: 72 hours of drug treatment, MTT, mesylate.

As for `CCOCC1CN(CCCn2cnc(/C=c3\[nH]c(=O)/c(=C/c4cccc(F)c4)[nH]c3=O)c2C(C)C)CCO1` (stereo not shown) [PLN-2-58, (3Z,6Z)-3-(3-Fluorophenyl)methylene-6-(5-isopropyl-1-(3-(2-(ethoxymethyl)morpholinyl)propylimidazol-4-yl)methylene)piperazine-2,5-dione], the melting point lay within 202 to 204 °C. For the same compound, in data set [1] (setting [5]), the IC50 came to 11.8 ± 1.82 nM. Further, the IC50 in data set [2] (setting [6]) amounted to 8.1 ± 1.44 nM. For the same compound, in data set [3] (setting [7]), the IC50 was 16.7 ± 0.98 nM.

In the case of `CC(C)c1c(/C=c2\[nH]c(=O)/c(=C/c3cccc4ccccc34)[nH]c2=O)ncn1CCCN1CCOCC1` [PLN-2-54, (3Z,6Z)-3-(1-Naphthalenyl)methylene-6-((5-isopropyl-1-(3-morpholinyl)propylimidazol-4-yl)methylene)piperazine-2,5-dione], the melting point fell in the range of 248 to 250 °C. For the same compound, the IC50 in data set [1] (setting [5]) was determined as 8.28 ± 0.91 nM. Also, the IC50 in data set [2] (setting [6]) is 5.74 ± 2.19 nM. For the same compound, the IC50 in data set [3] (setting [7]) was 3.48 ± 2.6 nM. For the same compound, the IC50 in data set [4] (Homo sapiens, HT-29, 72 h) amounted to 6.55 ± 0.33 nM.

Consider `CC(C)c1c(/C=c2\[nH]c(=O)/c(=C/c3cccc(F)c3)[nH]c2=O)ncn1CCCN1CCO[C@H](C)C1` (as salt: hydrochloride) [PLN-2-56-1, (3Z,6Z)-3-(3-Fluorophenyl)methylene-6-(5-isopropyl-1-(3-(R)-(2-methylmorpholinyl)propylimidazol-4-yl)methylene)piperazine-2,5-dione, hydrochloride], for which the melting point lay in the range of 232.8 to 234.8 °C.

With `CCCOCC1CN(CCCn2cnc(/C=c3\[nH]c(=O)/c(=C/c4cccc(F)c4)[nH]c3=O)c2C(C)C)CCO1` (stereo not shown) [PLN-2-59, (3Z,6Z)-3-(3-fluorophenyl)methylene-6-(5-isopropyl-1-(3-(2-(propoxymethyl)morpholinyl)propylimidazol-4-yl)methylene)piperazine-2,5-dione], the melting point lay in the range of 178 to 180 °C. Further, the IC50 in data set [1] (setting [5]) was 27.4 ± 0.52 nM. Further, in data set [2] (setting [6]), the IC50 stood at 15.5 ± 0.74 nM. For the same compound, the IC50 in data set [3] (setting [7]) worked out at 23.3 ± 2.49 nM.

In the case of `CC(C)c1c(/C=c2\[nH]c(=O)/c(=C/c3cc(F)ccc3F)[nH]c2=O)ncn1CCCN1CCOCC1` (as salt: hydrochloride) [PLN-2-7-1, (3Z,6Z)-3-(2,5-Difluorophenyl)methylene-6-((5-isopropyl-1-(3-morpholinyl)propylimidazol-4-yl)methylene)piperazine-2,5-dione, hydrochloride], the melting point is 174 to 176 °C.

For the compound `CC(C)c1c(/C=c2\[nH]c(=O)/c(=C/c3cccc(F)c3)[nH]c2=O)ncn1CCCN1CCO[C@@H](C)C1` (as salt: hydrochloride) [PLN-2-57-1, (3Z,6Z)-3-(3-Fluorophenyl)methylene-6-(5-isopropyl-1-(3-S)—(−2-methylmorpholinyl)propylimidazol-4-yl)methylene)piperazine-2,5-dione, hydrochloride], the melting point was 232.2 to 234.2 °C.

`CC(C)c1c(/C=c2\[nH]c(=O)/c(=C/c3cccc(Oc4ccc(F)cc4)c3)[nH]c2=O)ncn1CCCN1CCNCC1` [PLN-2-18] had a melting point of 176 to 178 °C. Also, the IC50 in data set [1] (setting [5]) is 99.72 ± 0.82 nM.

`Cc1cccc(/C=c2\[nH]c(=O)/c(=C/c3ncn(CCCN4CCOCC4)c3C(C)C)[nH]c2=O)c1C` [PLN-2-50, (3Z,6Z)-3-(2,3-Dimethylphenyl)methylene-6-((5-isopropyl-1-(3-morpholinyl)propylimidazol-4-yl)methylene)piperazine-2,5-dione]: the melting point is 164 to 166 °C. Also, the IC50 in data set [1] (setting [5]) was found to be 41.3 ± 1.25 nM. Also, the IC50 in data set [2] (setting [6]) came to 23 ± 1.56 nM. In addition, in data set [3] (setting [7]), the IC50 is 20.8 ± 2.56 nM. This compound also had an IC50 in data set [4] (Homo sapiens, HT-29, 72 h) of 37.1 ± 3.15 nM.

`CC(C)c1c(/C=c2\[nH]c(=O)/c(=C/c3cccc(F)c3)[nH]c2=O)ncn1CCCN1CCO[C@H](C)C1` [PLN-2-56, (3Z,6Z)-3-(3-Fluorophenyl)methylene-6-(5-isopropyl-1-(3-((R)-2-methylmorpholinyl)propylimidazol-4-yl)methylene)piperazine-2,5-dione] returned a melting point of 212 to 214 °C. Also, the IC50 in data set [1] (setting [5]) was determined as 5.59 ± 1.4 nM. Further, in data set [2] (setting [6]), the IC50 was determined as 3.24 ± 0.73 nM. The IC50 in data set [3] (setting [7]) was 4.26 ± 0.25 nM. Further, the IC50 in data set [4] (Homo sapiens, HT-29, 72 h) came out at 2.62 ± 0.91 nM.

`COc1cccc(/C=c2\[nH]c(=O)/c(=C/c3ncn(CCCN4CCOCC4)c3C(C)C)[nH]c2=O)c1` [PLN-2-52, (3Z,6Z)-3-(3-Methoxyphenyl)methylene-6-((5-isopropyl-1-(3-morpholinyl)propylimidazol-4-yl)methylene)piperazine-2,5-dione]: the melting point is 184 to 186 °C. Also, in data set [1] (setting [5]), the IC50 worked out at 16.5 ± 3.48 nM. Also, the concentration for half-maximal inhibition (IC50) in data set [2] (setting [6]) was 13.9 ± 0.89 nM. Moreover, the IC50 in data set [3] (setting [7]) came out at 7.54 ± 0.68 nM. Inhibition in data set [4] (Homo sapiens, HT-29, 72 h) was half-maximal at 8.49 ± 0.54 nM (IC50).

`Cc1cccc(/C=c2\[nH]c(=O)/c(=C/c3ncn(CCCN4CCOCC4)c3C(C)C)[nH]c2=O)c1` [PLN-2-51, (3Z,6Z)-3-(3-Methylphenyl)methylene-6-((5-isopropyl-1-(3-morpholinyl)propylimidazol-4-yl)methylene)piperazine-2,5-dione] came in with a melting point of 178 to 180 °C. Further, in data set [1] (setting [5]), the IC50 turned out to be 21.7 ± 3.04 nM. In addition, the IC50 in data set [2] (setting [6]) is 13.9 ± 3.21 nM. In addition, in data set [3] (setting [7]), the IC50 came out at 7.49 ± 0.12 nM. In data set [4] (Homo sapiens, HT-29, 72 h), this compound had an IC50 of 9.03 ± 0.29 nM.

In the case of `CC(C)c1c(/C=c2\[nH]c(=O)/c(=C/c3ccccc3)[nH]c2=O)ncn1CCCN1CCOCC1` (as salt: hydrochloride) [PLN-2-5-1, (3Z,6Z)-3-Benzylidene-6-((5-isopropyl-1-(3-morpholinyl)propylimidazol-4-yl)methylene)piperazine-2,5-dione, hydrochloride], the melting point lay within 220 to 222 °C.

Take `CC(C)c1c(/C=c2\[nH]c(=O)/c(=C/c3cccc(F)c3)[nH]c2=O)ncn1CCCN1CCOC(COCc2ccccc2)C1` (stereo not shown) [PLN-2-60, (3Z,6Z)-3-(3-Fluorophenyl)methylene-6-(5-isopropyl-1-(3-(2-(benzyloxymethyl)morpholinyl)propylimidazol-4-yl)methylene)piperazine-2,5-dione]: the melting point was 157 to 159 °C. Further, in data set [1] (Homo sapiens, NCI-H460, 72 h, read-out: IC50 (nM) NCI-H460, 72 hours of drug treatment, MTT), the 50% inhibitory concentration (IC50) is 59.67 ± 0.3 nM. In addition, the IC50 in data set [2] (Homo sapiens, BXPC-3, 72 h) worked out at 27.2 ± 1.42 nM. Moreover, in data set [3] (Homo sapiens, HCCLM3, 72 h), the IC50 stood at 49.2 ± 1.3 nM.

The compound `CC(C)c1c(/C=c2\[nH]c(=O)/c(=C/c3cccc(Oc4ccc(F)cc4)c3)[nH]c2=O)ncn1CCCN1CCOCC1` (as salt: hydrochloride) [PLN-2-2-1] gave a melting point of 173 to 175 °C.

In the case of `CC(C)c1c(/C=c2\[nH]c(=O)/c(=C/c3cccc(F)c3)[nH]c2=O)ncn1CCCN1CCO[C@H](C)C1` [PLN-2-56-1, (3Z,6Z)-3-(3-Fluorophenyl)methylene-6-(5-isopropyl-1-(3-(R)-(2-methylmorpholinyl)propylimidazol-4-yl)methylene)piperazine-2,5-dione, hydrochloride], the IC50 in data set [1] (72 hours of drug treatment, MTT, hydrochloride, read-out: IC50 (nM) NCI-H460) was 7.69 ± 0.28 nM; in data set [2] (setting [8]), 4.99 ± 0.19 nM; in data set [3] (setting [8]), 4.72 ± 0.73 nM; in data set [4] (hydrochloride), 4.43 ± 0.13 nM.

As to `CC(C)c1c(/C=c2\[nH]c(=O)/c(=C/c3cc(F)cc(F)c3)[nH]c2=O)ncn1CCCN1CCOCC1` [PLN-2-62-2, (3Z,6Z)-3-(3,5-Difluorophenyl)methylene-6-((5-isopropyl-1-(3-morpholinyl)propylimidazol-4-yl)methylene)piperazine-2,5-dione, mesylate], the IC50 was 4.6 ± 1.33 nM in data set [1] (72 hours of drug treatment, MTT, mesylate, read-out: IC50 (nM) NCI-H460); 3.66 ± 1.15 nM in data set [2] (setting [9]); 3.99 ± 0.08 nM in data set [3] (setting [9]); 3.55 ± 0.04 nM in data set [4] (mesylate).
